The values that follow come from US20040087792A1, “Tryptase-inhibitors” (priority 2001, published 2004).

In this test the target is human tryptase. Briefly: Inhibition of human tryptase (equilibrium, chromogenic substrate tos-Gly-Pro-arg-pNA). In kind it is biochemical. To be noted: in the presence of substrate; heparin 0.1-50 μg/ml; cleavage monitored at 405 nm; read-out: Klapp (apparent dissociation constant Kiapp). An excerpt:
The documented pathophysiological effects of mast cell tryptase are caused directly by the enzymatic activity of the protease. Accordingly, they are reduced or blocked by inhibitors which inhibit the enzymatic activity of the tryptase. A suitable measure for the affinity of a reversible inhibitor to the target protease is the equilibrium dissociation constant Ki of the enzyme-inhibitor complex. This Ki value can be determined via the effect of the inhibitor on the tryptase-induced cleavage of a chromogenic peptide-p-nitroanilide substrate or a fluorogenic peptide-aminomethylcoumarin substrate.
The dissociation constants for the tryptase-inhibitor complexes are determined under equilibrium conditions in accordance with the general proposals of Bieth (Bieth J G, Pathophysiological Interpretation of kinetic constants of protease inhibitors, Bull. Europ. Physiopath. Resp. 16:183-195, 1980) and the methods of Sommerhoff et al. (Sommerhoff C P et al., A Kazal-type inhibitor of human mast cell tryptase: Isolation from the medical leech Hirudo medicinalis, characterization, and sequence analysis, Biol. Chem. Hoppe-Seyler 375: 685-694, 1994).
Human tryptase is isolated from lung tissue or prepared recombinantly; the specific activity of the protease, determined by titration, is usually greater than 85% of the theoretical value. […]

Counter-ions that a name gives are not always drawn.

Consider `CCOC(=O)CN(CCNC(=O)OCC#Cc1ccc(C#CCOC(=O)NCCN(CC(=O)OCC)C(=O)CCc2ccc(CN)cc2)cc1)C(=O)CCc1ccc(CN)cc1` [Compound 1, 1,4-Bis-{N-[3-(4-aminomethyl-phenyl)-propionyl]-N-(ethoxycarbonyl-methyl)-amino-3-(ethyl-aminocarbonyloxy)-prop-1-ynyl}-benzene dihydrochloride], for which the Ki was 35 nM.
Regarding `CCOC(=O)CN(CCNC(=O)OCC#CCOC(=O)NCCN(CC(=O)OCC)C(=O)CCc1ccc(CN)cc1)C(=O)CCc1ccc(CN)cc1` [Compound 3, 1,4-Bis{N-[3-(4-(aminomethyl-phenyl)-propionyl]-N-(ethoxycarbonyl-methyl)-amino-3-(ethyl-aminocarbonyloxy)}-2-butynedihydrochloride], the Ki stood at 5.4 nM.
